Source: patent publication US11299496B2, “Ligands for alpha-7 nicotinic acetylcholine receptors and methods of treating neurological and inflammatory conditions” (Northeastern University, priority 2014, dated 2022)

Legend:
human alpha-7 nAChR = molecular target: T1, human alpha-7 nAChR (Homo sapiens, UniProt P36544); assay: Two-electrode voltage clamp of alpha-7 nAChR expressed in Xenopus oocytes (net charge); type: cell-based
T1 construct: expressed in transfected cells; host or cells: Xenopus laevis oocytes (cRNA injection)
T1 sequence (P36544 23-502): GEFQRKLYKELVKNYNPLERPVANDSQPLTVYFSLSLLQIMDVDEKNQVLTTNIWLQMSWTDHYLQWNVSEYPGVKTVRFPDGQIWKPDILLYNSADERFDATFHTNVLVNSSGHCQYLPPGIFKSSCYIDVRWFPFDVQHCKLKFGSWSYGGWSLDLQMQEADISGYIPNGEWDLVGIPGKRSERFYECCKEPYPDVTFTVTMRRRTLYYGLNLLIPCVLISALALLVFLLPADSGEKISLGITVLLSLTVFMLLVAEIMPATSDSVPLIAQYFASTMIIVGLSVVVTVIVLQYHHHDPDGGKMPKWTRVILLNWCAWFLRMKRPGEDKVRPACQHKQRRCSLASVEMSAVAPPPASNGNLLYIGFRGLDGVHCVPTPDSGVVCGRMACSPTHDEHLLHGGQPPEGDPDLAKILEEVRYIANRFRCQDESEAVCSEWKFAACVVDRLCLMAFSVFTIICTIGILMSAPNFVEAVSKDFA
Method in brief: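 Human α7 nAChR co-expressed with RIC-3 in Xenopus oocytes; two-electrode clamp at −60 mV, 12 s applications in Ringer's pH 7.3. Net charge integrated over 120 s from application, normalized to prior ACh controls; measured for compound alone and with choline or ACh; n≥4 oocytes.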

CFA-injected mice = assay: Complete Freund's Adjuvant test (mechanical allodynia, thermal hyperalgesia); type: in vivo, mouse
Description: Mice were injected with 20 μl of CFA (0.5 mg/ml of heat killed Mycobacterium tuberculosis, Sigma) in the intraplantar region of the right hindpaw. Paw diameter and thermal hyperalgesia (see paw withdrawal test) were measured 3 days after CFA injection. In separate groups of mice that received CFA, mechanical allodynia thresholds were determined according to previously published method (Ondachi et. al. J Med Chem. 2014 Feb. 13; 57(3):836-48. doi: 10.1021/jm401602p). Mice were placed in a plexiglas cage with mesh metal flooring and allowed to acclimate for 30 min before testing. A series of calibrated von Frey filaments (Stoelting, Wood Dale, Ill.) with logarithmically incremental stiffness ranging from 2.83 to 5.88 expressed as log 10 of [10 £ force in (mg)] were applied to the paw with a modified up-down method. In the absence of a paw withdrawal response to the initially selected filament, a thicker filament corresponding to a stronger stimulus was presented. In the event of paw withdrawal, the next weaker stimulus was chosen. Each hair was presented perpendicularly against the paw, with sufficient force to cause slight bending, and held 2-3 s. The stimulation of the same intensity was applied 5 times to the hindpaw at intervals of a few seconds. Three or more responses out of five stimulations were coded as a positive response. Once a positive response was detected, sequentially lower weight filaments were used to assess the sensory threshold for each paw. The allodynia scores were recorded in a blinded fashion.
A similar sequence of drug treatment described for the formalin testing was used to test the antinociceptive effects of alpha-7 nAChRs ago-PAMs in the CFA model of inflammatory pain. […] Paw diameter and mechanical allodynia will be measured 3 days after CFA injection. We assessed the dose-response relationship of […]7 nAChRs ago-PAMs (4 doses) in reversing CFA-induced mechanical allodynia and paw edema.

normal mice = assay: Morris water maze memory test; type: in vivo, mouse
Description: This test was carried out in normal mice using a Morris water maze.

## NS(=O)(=O)c1ccc2c(c1)[C@H]1C=CC[C@H]1[C@@H](c1ccc(Br)cc1)N2 [Compound 1, (3aR,4S,9bS)-4-(4-bromophenyl)-3a,4,5,9b-tetrahydro-3H-cyclopenta[c]quinoline-8-sulfonamide]
Human alpha-7 nAChR; compound alone acting as an allosteric agonist, area under the curve of current vs. time
  Charge Alone: 450
Human alpha-7 nAChR; compound together with choline or ACh, includes PAM and ago-PAM activity, area under the curve of current vs. time
  Charge +C: 1700
Human alpha-7 nAChR; enantioseparation and electrophysiological characterization
  activity of separated enantiomer vs racemate 4BP-TQS: all the activity of the racemate of 4BP-TQS lies in one enantiomer
CFA-injected mice; data not shown
  antiallodynic and antihyperalgesic effects after MLA: MLA blocked the effects
CFA-injected mice; i.p., dose dependent
  duration of antiallodynic effect: 180 min
CFA-injected mice; mouse, in vivo
  duration of antihyperalgesic effect: 60 min
Normal mice; FIG. 6
  memory defects in scopolamine-treated mice: dose dependently reversed the memory defects
Normal mice; normal mice
  latency to find the platform, compound given alone: reduced the latency for the mice to find the platform
